From publication PMC8916850, “Preparation of Spice Extracts: Evaluation of Their Phytochemical, Antioxidant, Antityrosinase, and Anti-α-Glucosidase Properties Exploring Their Mechanism of Enzyme Inhibition with Antibrowning and Antidiabetic Studies In Vivo” (BioMed Research International, 2022) come the findings set out here.

SMILES strings stand for the structures.

In the experiment the target is T1, Mushroom tyrosinase.
T1 construct: gene PPO1
The experiment can be described thus: dopachrome formation, absorbance at […] nm. In kind it is biochemical. The following applies: L-DOPA 0.85 mM, phosphate buffer 20 mM pH 6.8, 37 °C; 10 min preincubation; methods name kojic acid as the standard, table and text name hydroquinone.

In turn, `Oc1ccc(O)cc1` [hydroquinone] returned a MeOH of 131.34 ± 9.82 µg/mL.
